Data reported in patent US20260137696A1, “Compositions Comprising an Inhibitor of Galectin-3” (University of Liverpool, priority 2023, published 2026).
Several values for one entry are separate records, joined by “and”; a condition that tells them apart may be missing. Identical values can stand only once.

How the values were obtained:
[1] = test system: SW620^Gal3+ cells; assay: Cancer cell adhesion to HUVECs; format: cell-based, human; details: 10 μM; Galectin-3-expressing SW620^Gal3+ cells
Procedure: (§1) Adhesion of human colon cancer SW620 cells to human umbilical vein endothelial cells (HUVECs) was assessed in the absence or presence of the compounds of Formula I and Formula II (10 μM). […] (N=2, n=2);
(§2) Adhesion of human colon cancer SW620 cells to human umbilical vein endothelial cells (HUVECs) was assessed in the absence or presence of the compounds of Formula I and Formula II (10 μM).
(§3) HUVECs (1.5×10^5 cells/ml) were seeded into 96-well plates in complete EBM-2 medium and incubated at 37° C. 5% CO2 for 48-72 hours until a monolayer was formed. Monolayer integrity was confirmed by measuring trans-endothelial electrical resistance (TEER) using a Volt Ohm Meter and only monolayers with TEER reading over 800 Ω/cm^2 were used for the assay. ZsGreen- and luciferase-transfected SW620Gal3+, SW620Gal3− or ACA19+ cells (5×10^5 cells/ml) was then added to the HUVECs without or with 10 μM of the compound of Formula I or the compound of Formula II for 30-35 min at 37° C. The cells were washed twice with PBS before lysed with PLB. The cell lysates were transferred into new wells of white-walled 96-well plates and Luciferase Assay Reagent was added. The wells were mixed well and luminescence was measured using Infinite F200 Microplate reader. The experiment was performed three times, each time in triplicates.

[2] = test system: SW620 cells; assay: Cancer cell invasion through HUVECs (transwell); format: cell-based, human; details: 10 μM, transwells
Procedure: Invasion of human colon cancer SW620 cells through human umbilical vein endothelial cells (HUVECs) was assessed in transwells in the absence or presence of the compounds of Formula I and Formula II (10 μM).
HUVECs were seeded (1.5×10^4 cells/well) into trans-well insert in 24-well plate and cultured for three days to allow tight monolayer formation (TEER reading >800 Ω/cm2). The integrity of HUVEC monolayer was confirmed by measuring TEER and only monolayers with TEER reading >800 Ω/cm^2 were used for the invasion assay. The HUVEC monolayers were washed with PBS before introduction of ZsGreen- and luciferase transfected SW620Gal3+, SW620Gal-3, or ACA19+ cells (5×10^5 cells/ml) in serum-free DMEM with 0.5 mg/ml BSA, without or with 10 μM the compound of Formula I or the compound of Formula II. ZsGreen- and luciferase-labelled SW620Gal3− and SW620Gal3+ cells (5×10^5 cells/ml) were mixed without or with 10 μM inhibitors for 15 minutes before introduced to the HUVEC monolayer in the transwells for 16-18 hours. The cells at the upper side of the trans-well inserts were gently removed with a cotton swab and the inserts were washed twice with PBS. The cells that migrated to the bottom side of the trans-wells were lysed with PLB buffer for 10 min. The lyse was introduced with Luciferase Assay Reagent for 5 min before luminescence was measured. […]

[3] = test system: Salmonella typhimurium strain TA100; assay: Ames test (genotoxicity); format: cell-based; details: TA100, up to 1 mM tested, with or without metabolic activation (S9)
Procedure: (§4) Mutagenic potential of the compound of Formula I was assessed by Ames test in two Salmonella typhimurium strains TA98 and TA100 without and with metabolic activation (S9).
(§5) Effect of the compound inhibitors on genotoxicity was determined using the Salmonella typhimurium strains of TA 98 and TA 100 in the presence and absence of metabolic activation (S9). Each test concentration included the vehicle and positive controls. Briefly, the compounds were serially diluted in 24-well plates with or without the presence metabolic activation system (S9) and was incubated for 90 min at 37° C. in 250 rpm in a orbital shaking incubator. TA98 and TA100 were then introduced to the wells for 90 min. 50 μL aliquots from each well was dispensed into 384 well plates and incubated for 48 hrs at 37° C. in an incubator before positive wells were scored.

[4] = test system: Salmonella typhimurium strain TA98; assay: Ames test (genotoxicity); format: cell-based; details: TA98, up to 1 mM tested, with or without metabolic activation (S9)
Procedure: as §4, §5

[5] = target: T1, Galectin-3 (Homo sapiens, UniProt P17931); assay: Galectin-3 binding to its ligand asialofetuin (ASF), ELISA; details: Galectin-3 5 μg/ml, ASF 20 μg/ml, read-out: IC50, inhibition of Galectin-3 binding to ASF
T1 construct: made in house; host or cells: E. coli
Procedure: The compounds of Formula I and Formula II each inhibits Galectin-3 binding to ASF dose-dependently with IC50 1˜5 μM;
FIG. 1A and FIG. 1B show compounds of Formula I and Formula II inhibit Galectin-3 binding to its ligand asialofetuin (ASF). […] The compounds of Formula I and Formula II each inhibit Galectin-3 binding to ASF dose-dependently with IC50 1˜5 μM.
Ninety-six well ELISA plates were coated with 20 μg/ml ASF in coating buffer (1.6 g Na2CO3, 1.46 NaHCO3 in 1 L H20, pH 9.6) overnight at room temperature. The plates were washed twice with washing buffer (0.05% Tween-20 in PBS) before incubation with blocking buffer (1% BSA in PBS) for 30 min. Recombinant human Galectin-3 (5 ug/ml) was incubated without or with various concentrations of the compounds of Formula I and compounds of Formula II for 30 min before introduced to the plates for 2 hr at room temperature. The plates were washed twice with washing buffer before introduction of anti-Galectin-3 antibody (1 μg/ml) for 2 hr. The plates were washed three times with washing buffer before introduction of HRP-conjugated secondary antibody (1:5,000 dilutions) for 1 hr at room temperature. The plates were washed twice with washing buffer before developed by SigmaFAST. The reaction was stopped by addition of 4M sulphuric acid before the plates were read at 492 nm (ref 595 nm) by a microplate reader.

[6] = test system: ACA19+ cells; assay: Melanoma cell adhesion to HUVECs; format: cell-based; details: human melanoma ACA19+ cells, various concentrations
Procedure: as §1, §2, §3

T1 sequence (P17931 whole entry): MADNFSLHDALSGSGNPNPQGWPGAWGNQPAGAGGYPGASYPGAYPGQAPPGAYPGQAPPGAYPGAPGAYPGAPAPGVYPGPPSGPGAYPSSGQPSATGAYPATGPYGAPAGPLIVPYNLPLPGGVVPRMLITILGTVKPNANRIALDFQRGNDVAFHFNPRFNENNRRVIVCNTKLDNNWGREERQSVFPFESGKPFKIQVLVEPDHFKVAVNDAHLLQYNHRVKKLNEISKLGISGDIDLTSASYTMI

SMILES | adhesion to HUVEC [1] | SW620 cell invasion through HUVECs [2] | mutagenic activity [3] | mutagenic activity [4] | IC50 [5] | ACA19+ cell adhesion to HUVEC [6]
C[C@H]1COc2c(N3CCN(C)CC3)c(F)cc3c(=O)c(C(=O)NNc4ccc(N)cc4)cn1c23 [Formula I] | significantly inhibits | significant inhibits | no mutagenic activity | no mutagenic activity | ~1 µM and 1 to 5 µM | dose-dependent inhibition
C[C@H]1COc2c(N3CCN(C)CC3)c(F)cc3c(=O)c(C(=O)NNc4cccc(N)c4)cn1c23 [Formula II] | significantly inhibits | significant inhibits | – | – | ~5 µM and 1 to 5 µM | dose-dependent inhibition
